Data from PMC4811503, “A method for quantification of exportin-1 (XPO1) occupancy by Selective Inhibitor of Nuclear Export (SINE) compounds” (Oncotarget, 2015).
Read-outs that look alike come from different tables or passages of the source. Blank lines part the entries; values can stand above or below the molecule they belong to.

Experiments:
XPO1 = XPO1 (Homo sapiens, UniProt O14980); experiment: XPO1 occupancy assay in cultured cell lines (biotinylated probe pull-down, Simple Western); format: cell-based; set-up: Cells were collected, washed with PBS, and lysed with RIPA Buffer; endogenous in cells; host or cells: MM.1S; settings: MM.1S cells
Sequence of XPO1 (O14980 whole entry): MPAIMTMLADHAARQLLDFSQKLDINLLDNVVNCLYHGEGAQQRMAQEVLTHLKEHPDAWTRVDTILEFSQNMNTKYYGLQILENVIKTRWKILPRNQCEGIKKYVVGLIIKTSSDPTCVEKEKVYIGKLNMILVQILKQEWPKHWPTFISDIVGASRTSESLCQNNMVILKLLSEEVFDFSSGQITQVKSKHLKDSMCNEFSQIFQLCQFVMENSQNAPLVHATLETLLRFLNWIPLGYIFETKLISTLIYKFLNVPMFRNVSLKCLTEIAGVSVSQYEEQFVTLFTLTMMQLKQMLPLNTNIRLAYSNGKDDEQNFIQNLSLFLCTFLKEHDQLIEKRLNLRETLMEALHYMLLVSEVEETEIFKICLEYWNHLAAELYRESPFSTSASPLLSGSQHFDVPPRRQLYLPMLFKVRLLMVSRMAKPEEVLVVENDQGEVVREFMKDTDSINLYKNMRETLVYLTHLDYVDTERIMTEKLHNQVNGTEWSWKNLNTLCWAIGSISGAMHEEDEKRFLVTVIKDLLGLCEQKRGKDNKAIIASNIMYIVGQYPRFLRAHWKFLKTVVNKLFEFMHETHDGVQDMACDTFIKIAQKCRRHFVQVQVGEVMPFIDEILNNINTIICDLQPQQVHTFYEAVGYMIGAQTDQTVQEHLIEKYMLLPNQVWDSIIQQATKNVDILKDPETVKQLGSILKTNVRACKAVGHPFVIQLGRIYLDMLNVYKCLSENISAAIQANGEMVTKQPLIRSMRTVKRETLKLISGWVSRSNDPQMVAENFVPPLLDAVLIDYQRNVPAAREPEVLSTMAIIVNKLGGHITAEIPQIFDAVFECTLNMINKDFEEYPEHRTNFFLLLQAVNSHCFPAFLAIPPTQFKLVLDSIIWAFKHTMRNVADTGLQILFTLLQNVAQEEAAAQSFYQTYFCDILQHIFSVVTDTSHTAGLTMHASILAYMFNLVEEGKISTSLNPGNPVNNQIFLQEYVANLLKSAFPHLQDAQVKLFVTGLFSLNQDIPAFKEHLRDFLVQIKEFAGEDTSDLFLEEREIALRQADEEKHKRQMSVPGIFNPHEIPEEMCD
Procedure: b-LMB was tested for the ability to bind XPO1 protein. First, a dose-response curve was generated by exposing MM.1S cells to increasing concentrations of b-LMB (0 – 500 nM) for 1.5 hours in culture. The cells were then collected, lysed, and a portion of the lysate (input) was reserved prior to incubating the remaining lysate with streptavidin-tagged beads overnight. After extensive washes, b-LMB bound XPO1 was eluted from the beads, and XPO1 from both input and bead eluate was detected and quantified by Simple Western on Peggy Sue. Simple Western allows for the chemiluminescent detection of proteins from small volumes of samples that are run through a matrix-filled capillary. The signal is detected by a CCD camera which generates a digital image and then reports quantitative results. […] The protein signals for XPO1 detected by Simple Western in Figure 2A were reported as mean peak areas and were used to compare levels of XPO1 present in each sample to produce a graphical representation of the ratio of free XPO1 detected at each concentration of b-LMB (Figure 2B). “Ratio of bound XPO1” is defined as the ratio of the mean peak area of b-LMB bound XPO1 detected in the eluate compared to the mean peak area of all XPO1 detected in the input lysate, while “free-fraction” refers to the amount of XPO1 not occupied by SINE compound, as described later.
The cells were then collected and processed for the XPO1 occupancy assay. […] For these assays, the “ratio of free-fraction XPO1” is calculated by dividing the mean peak areas of XPO1 occupied by b-LMB (from the eluate) by the total amount of XPO1 (from the input).
Cells were collected, washed with PBS, and lysed with RIPA Buffer (Thermo Scientific) with protease inhibitors [Complete Ultra Tablets, Mini, EDTA-free, Easy pack (Roche), PhosStop Easy (Roche)]. A portion of the lysate was reserved (input) while the rest was added to washed Dynabeads MyOne Streptavidin T1 (Invitrogen) with RIPA Buffer. Samples were incubated overnight with constant rotation at 4°C. Beads were then washed 5 times with modified RIPA (150 mM NaCl, 50 mM Tris, 1% NP-40, 0.1% Na deoxycholate, 1 mM EDTA, pH 7.8). The reserved portion of lysates (input) and the beads were each mixed with Protein Simple buffer (Protein Simple), DTT (Invitrogen), and fluorescent standards (Protein Simple), then boiled at 95°C for 10 min. Eluates and inputs were analyzed using a capillary western method (Peggy Sue; Protein Simple) with the following primary antibodies: XPO1 (Santa Cruz) and β-actin (Santa Cruz). Capillary westerns were performed by SBH Sciences (Natick, MA). Peak areas corresponding to the protein molecular weight of XPO1 and actin were compared for sample inputs, while the ratio of XPO1 peak areas in eluate to input (ratio of bound or free-fraction XPO1) versus compound concentration were used in XLFit model 205 to calculate 50% and 90% occupancy curves.

[1] = system: nuclear export of the XPO1 cargo protein Rev-GFP in stably transfected U2OS cells; experiment: Rev-GFP assay (nuclear retention of Rev-GFP); format: cell-based; settings: Homo sapiens
Description: (§1) For this assay we utilized biotinylated LMB (b-LMB) as a tool compound to quantify the amount of XPO1 bound by SINE compounds (Figure 1). b-LMB was synthesized by coupling a biotin tag to LMB. We compared the inhibition of nuclear export and the cytotoxicity of b-LMB to that of the unmodified LMB. […] We then quantified the effects of these compounds on cell death in several cancer cell lines using an MTT cytotoxicity assay (Table 2).
For the typical Rev-GFP assay, U2OS cells stably expressing Rev-GFP [42] were cultured in 96 well plates at 7,500 - 15,000 cells/well. […] After fixation cells were stained with DAPI (Invitrogen) for 10 minutes at room temperature. Cells were imaged with a Nikon fluorescent microscope at 10X magnification and intensity of the GFP and nuclear area were measured and recorded. Cells were scored as either GFP nuclear positive or negative. Number of positive cells were divided by total number of cells in order to calculate percentage of cells with nuclear GFP per well.

[2] = MTT assay of unmodified and biotinylated SINE compounds (cell line not given); format: cell-based; settings: for IC50: cell line not named; for fold less cytotoxic compared to unmodified counterpart: ratio of MTT IC50 values
AML2 = experiment: MTT cytotoxicity assay; format: cell-based; settings: 72 hours, read-out: IC50
[3] = system: several cancer cell lines; settings: human, 72 h
Procedure: as §1
Cells were seeded in 96-well flat-bottom culture plates. […] Triplicate wells per concentration were used to calculate IC50 curves. The CellTiter-Fluor Cell Viability Assay (Promega) was performed as instructed by the manufacturer. The whole procedure was repeated three times. The inhibitory rate of cell growth was calculated using the formula: % growth inhibition = (1− OD extract treated)/OD negative control × 100).

AML3 = experiment: MTT cytotoxicity assay; format: cell-based; settings: 72 hours, read-out: IC50
HCT-116 = experiment: MTT cytotoxicity assay; format: cell-based; settings: Homo sapiens, 72 hours, read-out: IC50
MM.1S = experiment: MTT cytotoxicity assay; format: cell-based; settings: Homo sapiens, MM1.S, 72 hours, read-out: IC50
[4] = SINE compound 1 hour, then 1 nM b-LMB […]
[5] = SINE compound 1 hour, then 1 nM b-LMB […], read-out: Avg 50% Occupancy
[6] = read-out: Rev-GFP IC50 (μM), U2OS Rev-GFP cells
[7] = biotinylated SINE compound alone, direct binding
[8] = biotinylated SINE compound alone, direct binding, read-out: 50% Occupancy
[9] = read-out: Rev GFP IC50 (nM), U2OS Rev-GFP cells, unmodified and biotinylated SINE compounds
[10] = 4 h, read-out: Rev-GFP (nM), U2OS cells stably expressing Rev-GFP, 4 hours treatment

XPO1 binding in the occupancy assay (negative control) (XPO1; 0 – 10 μM, then 1 nM b-LMB, data not shown): no XPO1 bound
SMILES: COc1cc(-c2ncn(/C=C/C(=O)OC(C)C)n2)cc(C(F)(F)F)c1 [KPT-301]

SMILES: O=C(/C=C\n1cnc(-c2cc(C(F)(F)F)cc(C(F)(F)F)c2)n1)NNc1ccccn1 [Verdinexor, verdinexor]
Avg 90% Occupancy (μM) (XPO1; [4]): 0.34 +/− 0.08 (n = 3) μM
EC50 (XPO1; [5]): 40 nM
IC50 [1, 6]: 0.01 µM

SMILES: NC(=O)/C(=C/n1cnc(-c2cc(OC(=O)CCCC[C@@H]3SC[C@@H]4NC(=O)N[C@@H]43)cc(C(F)(F)F)c2)n1)c1cncnc1 [KPT-9511]
IC50 [2]: 280 nM
fold less cytotoxic compared to unmodified counterpart [2]: ~15 fold
90% Occupancy (XPO1; [7]): 0.61 µM
EC50 (XPO1; [8]): 180 nM
IC50 [1, 9]: 0.23 µM

SMILES: CCC(C=CC1OC(=O)C=CC1C)=CC(C)CC=CC(C)=CC(C)C(=O)C(C)C(O)C(C)CC(C)=CC(=O)NCCCCCCNC(=O)CCCCC1SCC2NC(=O)NC21 (stereo not shown) [b-LMB, reference compound]
IC50 (AML2): 2.53 nM
fold less cytotoxic than unmodified LMB [3]: 6 – 30 fold
IC50 (AML3): 4.68 nM
amount of b-LMB necessary to occupy 90% of XPO1 (XPO1; b-LMB […], direct binding, n = 3): 2.53 ± 1.72 nM
EC50 (XPO1; b-LMB […], direct binding, n = 3, read-out: amount of b-LMB necessary to occupy 50% of XPO1): 0.27 nM
IC50 (HCT-116): 6 nM
IC50 (MM.1S): 3.1 nM
IC50 [1, 10]: 0.00011 µM

SMILES: O=C1N[C@H]2[C@H](CS[C@H]2CCCCC(=O)Oc2cc(-c3ncn(/C=C\C(=O)N4CC(F)(F)C4)n3)cc(C(F)(F)F)c2)N1 [KPT-9058]
IC50 [2]: 110 nM
fold less cytotoxic compared to unmodified counterpart [2]: ~6 fold
90% Occupancy (XPO1; [7]): 0.69 µM
EC50 (XPO1; [8]): 120 nM
IC50 [1, 9]: 0.961 µM

SMILES: CC(C)(C)C(=O)NNC(=O)/C=C\n1cnc(-c2cc(C(F)(F)F)cc(C(F)(F)F)c2)n1 [KPT-350]
Avg 90% Occupancy (μM) (XPO1; [4]): 6.45 +/− 3.36 (n = 3) μM
EC50 (XPO1; [5]): 630 nM
IC50 [1, 6]: 0.17 µM

SMILES: O=C(/C=C\n1cnc(-c2cc(C(F)(F)F)cc(C(F)(F)F)c2)n1)N1CC(F)(F)C1 [KPT-276]
IC50 [2]: 18 nM
IC50 [1, 9]: 0.053 µM

SMILES: NC(=O)/C(=C/n1cnc(-c2cc(C(F)(F)F)cc(C(F)(F)F)c2)n1)c1cncnc1 [KPT-8602]
IC50 [2]: 19 nM
Avg 90% Occupancy (μM) (XPO1; [4]): 1.1 +/− 1.03 (n = 2) μM
90% Occupancy (XPO1; followed by 0.1 μM KPT-9511 as probe): 0.11 µM
IC50 [1, 9]: 0.042 µM
IC50 [1, 6]: 0.04 µM

SMILES: CCC(=C/[C@H](C)C/C=C/C(C)=C/[C@@H](C)C(=O)[C@@H](C)[C@H](O)[C@@H](C)C/C(C)=C/C(=O)O)/C=C/[C@@H]1OC(=O)C=C[C@@H]1C [LMB, leptomycin B, reference compound]
IC50 (AML2): 0.39 nM
IC50 (AML3): 0.68 nM
IC50 (HCT-116): 0.19 nM
IC50 (MM.1S): 0.46 nM
IC50 [1, 10]: 0.00016 µM
